Test results reported in publication PMC10548512 (Chemical Science, 2023).

What was measured:
[1] = tested on: H1N1pdm09 virus (A/Netherlands/602/2009); conditions: for IC50: 1 h
H1 ectodomain = conditions: pH 7.5

| SMILES | Infection inhibition in single-concentration screen [1] | Plateau of infection inhibition in dose-response [1] | IC50 [1] | Competition with fluorescein-labelled S5 for binding to H1 protein (H1 ectodomain) |
| --- | --- | --- | --- | --- |
| CC[C@H](C)[C@@H]1NC(=O)[C@H](CO)NC(=O)CNC(=O)CNC(=O)[C@H](CC(=O)O)NC(=O)[C@@H]2CCCN2C(=O)[C@H](Cc2c[nH]c3ccccc23)NC(=O)[C@H](CC(N)=O)NC(=O)[C@H](Cc2ccccc2)NC(=O)[C@H](C(C)C)NC(=O)[C@H](Cc2ccccc2)NC(=O)[C@H](CC(C)C)NC(=O)[C@@H]2CSC(=N2)c2cc(ccn2)C[C@@H](C(=O)NCC(N)=O)NC(=O)[C@H](CCCCN)NC(=O)[C@H](CC(N)=O)NC(=O)[C@H]([C@@H](C)O)NC1=O [M5] | clear infection inhibition | plateau at less than full inhibition | 40.3 nM | compete |
| CC[C@H](C)[C@@H]1NC(=O)CNC(=O)[C@H](CC(N)=O)NC(=O)[C@@H]2CCCN2C(=O)[C@H](C(C)C)NC(=O)[C@H](Cc2ccccc2)NC(=O)[C@H](Cc2ccc(O)cc2)NC(=O)[C@@H]2CCCN2C(=O)[C@H](Cc2ccccc2)NC(=O)[C@H](Cc2ccc(O)cc2)NC(=O)[C@H](CC(C)C)NC(=O)[C@@H]2CSC(=N2)c2cc(ccn2)C[C@@H](C(=O)NCC(N)=O)NC(=O)[C@H](CCC(=O)O)NC(=O)[C@H](CC(C)C)NC(=O)[C@H]([C@@H](C)CC)NC(=O)[C@H](CC(N)=O)NC1=O [M7] | clear infection inhibition | plateau at less than full inhibition | 10.8 nM | compete |
